According to US20150252329A1, “METHODS AND APPARATUS FOR CULTURING CILIATED CELLS” (THE UNIVERSITY OF NORTH CAROLINA AT CHAPEL HILL, priority 2012, published 2015):

System: human airway epithelial cells
Test: CBF and MCT speed of HAE cells cultured in the MCTD after stimulation by ATPγS
Format: cell-based
Settings: HAE cell cultures with circular MCT in the MCTD; 1 mM ATPγS in buffer added to apical surface; average of four experiments/donors; p<0.05 vs carrier and baseline
Description: An MCT culturing device (MCTD) and the MCT system (MCTS) generally configured as shown for the MCTD 100 and MCTS 10 were constructed. The MCTD was constructed on a 30 mm Millicell™ cell culture insert (Millipore, Ireland). The base of an approximately 15 mm diameter central cylinder of cell culture compatible material (nylon, polystyrene) was attached to the center interior of the cell culture insert with an inert, silicone-based sealer. The approximately 4.0 mm outer ring or track defined in the bottom of the cell culture insert between the central cylinder and the cell culture insert was then coated with human Type IV collagen at ˜90 μg/cm^2, air-dried, and UV-irradiated. […] Cultures were examined at the time of media change and the extent of ciliation and the development of continuous, circular transport was recorded. […] High speed videos were recorded from four equally spaced positions around the MCTD. Ciliary beat frequency (CBF) was determined by whole field analysis using the SAVA™ software program (Sisson, Stoner et al. 2003), and the speed and direction of particle transport were determined by tracking particles of debris in the mucus. Alternatively, a small volume of fluid (0.5 μl) containing fluorescent beads was added to the mucus layer, and after equilibration (5-10 minutes), the motion of the fluorescent beads was recorded and analyzed using fluorescent microscopy. […]

SMILES: Nc1ncnc2c1ncn2[C@@H]1O[C@H](COP(=O)(O)OP(=O)(O)OP(O)(O)=S)[C@@H](O)[C@H]1O [ATPγS]
- MCT speed (mucociliary transport): significantly increased
- ciliary beat frequency (CBF): significantly increased
